In patent publication US10364226B2, “Pyridazinone compounds and uses thereof” (priority 2013, dated 2019):

Legend:
EN PA = EN PA (Influenza A virus, UniProt P15659); assay: EN PA FRET Inhibition Assay; type: biochemical; details: read-out: Potency
[1] = system: Influenza strain A549 A/WSN/33 (H1N1); assay: Influenza Antiviral Assay; type: cell-based, Influenza A virus; details: Influenza A virus, A549, 20 h, neuraminidase fluorescence readout, read-out: % Inhibition

Row | SMILES | IC50 (EN PA) | EC50 [1]
1 | O=C(O)c1nn(-c2cccc(C(F)(F)F)c2)cc(O)c1=O [Compound 1, 5-hydroxy-4-oxo-1-(3-(trifluoromethyl)phenyl)-1,4-dihydropyridazine-3-carboxylic acid] | 0.1 to 1 µM | > 100 µM
2 | CCN(CC)S(=O)(=O)c1ccc(OC)c(-n2cc(O)c(=O)c(C(=O)O)n2)c1 [Compound 2, 1-(5-(N,N-diethylsulfamoyl)-2-methoxyphenyl)-5-hydroxy-4-oxo-1,4-dihydropyridazine-3-carboxylic acid] | 0.1 to 1 µM | > 100 µM
3 | O=C(O)c1nn(-c2ccc(F)cc2)cc(O)c1=O [Compound 4] | 0.1 to 1 µM | > 100 µM
4 | O=C(O)c1nn(-c2cccc(Oc3ccccc3)c2)cc(O)c1=O [Compound 6] | 0.1 to 1 µM | > 100 µM
5 | O=C(O)c1nn(-c2ccccc2C(F)(F)F)cc(O)c1=O [Compound 7] | 0.1 to 1 µM | > 100 µM
6 | O=C(O)c1nn(-c2ccccc2Oc2ccccc2)cc(O)c1=O [Compound 9] | 0.1 to 1 µM | > 100 µM
7 | O=C(O)c1nn(-c2ccc3c(c2)CCC3)cc(O)c1=O [Compound 10] | 0.1 to 1 µM | > 100 µM
8 | O=C(O)c1nn(-c2ccccc2N2CCCCC2)cc(O)c1=O [Compound 11] | 0.1 to 1 µM | > 100 µM
9 | CS(=O)(=O)Nc1cccc(-n2cc(O)c(=O)c(C(=O)O)n2)c1 [Compound 17] | 0.1 to 1 µM | > 100 µM
10 | O=C(O)c1nn(-c2ccccc2-c2ccccc2)cc(O)c1=O [Compound 18] | 0.1 to 1 µM | > 100 µM
11 | CN(Cc1ccccc1-n1cc(O)c(=O)c(C(=O)O)n1)C1CCCCC1 [Compound 19] | 0.1 to 1 µM | > 100 µM
12 | O=C(O)c1nn(-c2cc(C(F)(F)F)cc(C(F)(F)F)c2)cc(O)c1=O [Compound 20] | 0.1 to 1 µM | > 100 µM
13 | O=C(O)c1nn(-c2ccccc2OC(F)(F)F)cc(O)c1=O [Compound 21] | < 0.1 µM | > 100 µM
14 | O=C(O)c1nn(-c2ccccc2S(=O)(=O)c2ccccc2)cc(O)c1=O [Compound 24] | < 0.1 µM | > 100 µM
15 | O=C(O)c1nn(-c2ccccc2-c2ccccc2-c2ccccc2)cc(O)c1=O [Compound 35] | < 0.1 µM | < 20 µM
16 | O=C(O)c1nn(-c2ccccc2N2CCCC2Cc2ccccc2)cc(O)c1=O (stereo not shown) [Compound 203] | 0.1 to 1 µM | 20 to 100 µM
17 | CC1(C)CCN(c2ccccc2-n2cc(O)c(=O)c(C(=O)O)n2)CC1 [Compound 206] | 0.1 to 1 µM | 20 to 100 µM
18 | CC(C)C1CCN(c2ccccc2-n2cc(O)c(=O)c(C(=O)O)n2)CC1 [Compound 207] | 0.1 to 1 µM | 20 to 100 µM
19 | CC1CCCN(c2ccccc2-n2cc(O)c(=O)c(C(=O)O)n2)C1 (stereo not shown) [Compound 210] | 0.1 to 1 µM | > 100 µM

Row | SMILES | IC50 (EN PA) | EC50 [1]
20 | O=C(O)c1nn(-c2ccccc2N2CCCC(c3ccccc3)C2)cc(O)c1=O (stereo not shown) [Compound 211] | 0.1 to 1 µM | 20 to 100 µM
21 | Cc1ccc(OC(C)C)c(-c2ccccc2-n2cc(O)c(=O)c(C(=O)O)n2)c1 [Compound 314] | 0.1 to 1 µM | > 100 µM
22 | O=C(O)c1nn(-c2ccccc2-c2ccccc2OC2CCCC2)cc(O)c1=O [Compound 319] | 0.1 to 1 µM | < 20 µM
23 | O=C(O)c1nn(-c2ccccc2-c2ccc3[nH]ccc3c2)cc(O)c1=O [Compound 320] | 0.1 to 1 µM | > 100 µM
24 | O=C(O)c1nn(CCc2ccccc2C(F)(F)F)cc(O)c1=O [Compound 400, 1-(2-(trifluoromethyl)phenethyl)-1,4-dihydro-5-hydroxv-4-oxopyridazine-3-carboxylic acid] | < 0.1 µM | > 100 µM
25 | O=C(O)c1nn(CCc2ccccc2)cc(O)c1=O [Compound 401] | 0.1 to 1 µM | > 100 µM
26 | O=C(O)c1nn(CCCc2ccccc2)cc(O)c1=O [Compound 402] | 0.1 to 1 µM | > 100 µM
27 | O=C(O)c1nn(Cc2ccccc2-c2ccccc2)cc(O)c1=O [Compound 403] | < 0.1 µM | > 100 µM
28 | CC(C)(C)OC(=O)n1cc(CCn2cc(O)c(=O)c(C(=O)O)n2)c2ccccc21 [Compound 404] | < 0.1 µM | > 100 µM
29 | CCOC(=O)c1nn(CC2(c3cccc(C(F)(F)F)c3)CCCC2)cc(O)c1=O [Compound 405] | ≥ 1 µM | < 20 µM
30 | O=C(O)c1nn(CC2(c3cccc(C(F)(F)F)c3)CCCC2)cc(O)c1=O [Compound 406] | < 0.1 µM | < 20 µM
31 | O=C(O)c1nn(CCc2c[nH]c3ccccc23)cc(O)c1=O [Compound 407] | 0.1 to 1 µM | > 100 µM
32 | CCOC(=O)c1nn(CCc2ccccc2C(F)(F)F)cc(O)c1=O [Compound 408] | ≥ 1 µM | 20 to 100 µM
33 | O=C(O)c1nn(Cc2ccccc2)cc(O)c1=O [Compound 409] | 0.1 to 1 µM | > 100 µM
34 | O=C(O)c1nn(CC2(c3ccccc3)CCCC2)cc(O)c1=O [Compound 410] | < 0.1 µM | < 20 µM
35 | CCOC(=O)c1nn(CC2(c3ccccc3)CCCC2)cc(O)c1=O [Compound 411] | 0.1 to 1 µM | < 20 µM
36 | O=C(O)c1nn(CCc2cccc(C(F)(F)F)c2)cc(O)c1=O [Compound 412] | < 0.1 µM | > 100 µM
37 | Cc1ccc(C(C)(C)Cn2cc(O)c(=O)c(C(=O)O)n2)cc1 [Compound 416] | < 0.1 µM | 20 to 100 µM
38 | O=C(O)c1nn(CCC2CCCCC2)cc(O)c1=O [Compound 421] | 0.1 to 1 µM | > 100 µM

Row | SMILES | IC50 (EN PA) | EC50 [1]
39 | O=C(O)c1nn(CC2(n3ccc4cccnc43)CCCC2)cc(O)c1=O [Compound 422] | < 0.1 µM | < 20 µM
40 | O=C(O)c1nn(CCc2cccc3ccccc23)cc(O)c1=O [Compound 423] | 0.1 to 1 µM | > 100 µM
41 | O=C(O)c1nn(CC2(c3cccc(C(F)(F)F)c3)CC2)cc(O)c1=O [Compound 424] | 0.1 to 1 µM | 20 to 100 µM
42 | CCC(NC(=O)c1nn(CC2(c3cccc(C(F)(F)F)c3)CCCC2)cc(O)c1=O)C(F)(F)F (stereo not shown) [Compound 500, 5-hydroxy-4-oxo-N-(1,1,1-trifluorobutan-2-yl)-1-((1-(3-(trifluoromethyl)phenyl)cyclopentyl)methyl)-1,4-dihydropyridazine-3-carboxamide] | 0.1 to 1 µM | < 20 µM
43 | CNC(=O)c1nn(-c2ccccc2-c2ccc(CC(C)C)cc2)cc(O)c1=O [Compound 501] | ≥ 1 µM | < 20 µM
44 | O=C(c1nn(CC2(c3cccc(C(F)(F)F)c3)CCCC2)cc(O)c1=O)N1CCC(F)(F)C1 [Compound 502] | ≥ 1 µM | < 20 µM
45 | O=C(NC1(C(F)(F)F)CCCC1)c1nn(CC2(c3cccc(C(F)(F)F)c3)CCCC2)cc(O)c1=O [Compound 503] | 0.1 to 1 µM | < 20 µM
46 | CN(C)C(=O)c1nn(CC2(c3cccc(C(F)(F)F)c3)CCCC2)cc(O)c1=O [Compound 504] | ≥ 1 µM | 20 to 100 µM
47 | O=C(NCC(F)(F)F)c1nn(CC2(c3cccc(C(F)(F)F)c3)CCCC2)cc(O)c1=O [Compound 505] | 0.1 to 1 µM | < 20 µM
48 | CNC(=O)c1nn(CC2(c3cc(C(F)(F)F)cc(C(F)(F)F)c3)CCCC2)cc(O)c1=O [Compound 506] | 0.1 to 1 µM | < 20 µM
49 | O=C(NC1CC1)c1nn(CC2(c3cccc(C(F)(F)F)c3)CCCC2)cc(O)c1=O [Compound 507] | 0.1 to 1 µM | < 20 µM
50 | O=C(NCc1ccccc1)c1nn(CC2(c3cccc(C(F)(F)F)c3)CCCC2)cc(O)c1=O [Compound 509] | 0.1 to 1 µM | < 20 µM
51 | O=C(NCC1CC1)c1nn(CC2(c3cccc(C(F)(F)F)c3)CCCC2)cc(O)c1=O [Compound 510] | 0.1 to 1 µM | < 20 µM
52 | CNC(=O)c1nn(CC2(c3cccc(C(F)(F)F)c3)CCCC2)cc(O)c1=O [Compound 511] | 0.1 to 1 µM | < 20 µM
53 | CS(=O)(=O)NC(=O)c1nn(CC2(c3cccc(C(F)(F)F)c3)CCCC2)cc(O)c1=O [Compound 512] | 0.1 to 1 µM | < 20 µM
54 | O=C(NCc1ccc(Cl)c(Cl)c1)c1nn(CC2(c3cccc(C(F)(F)F)c3)CCCC2)cc(O)c1=O [Compound 513] | 0.1 to 1 µM | < 20 µM
55 | O=C(NC1CCCC1)c1nn(CC2(c3cccc(C(F)(F)F)c3)CCCC2)cc(O)c1=O [Compound 514] | 0.1 to 1 µM | < 20 µM
56 | O=C(NC1CCC1)c1nn(CC2(c3cccc(C(F)(F)F)c3)CCCC2)cc(O)c1=O [Compound 515] | 0.1 to 1 µM | > 100 µM
